Measurements from publication PMC10485820 (European Journal of Pharmaceutical Sciences, 2023).
Where two headings read alike, the source gives them in different places.

Key:
[1] = tested on: primary human plated hepatocytes; assay: Metabolic stability in human plated hepatocytes; conditions: incubation up to 48 h, HSK7653 at 0.05 μM
Procedure: Reactions were stopped by removing the plates from the incubator and mixing the incubation solution with 600 μL of ice-cold stop solution (acetonitrile) at the corresponding sampling time points.

[2] = Apparent permeability in Caco-2 monolayer cell lines; assay type: in vitro ADME; conditions: human, Caco-2, positive controls
Procedure: All experiments were performed in triplicate and analyzed by high-performance liquid chromatography with tandem mass spectrometry (HPLC-MS/MS). The apparent permeability coefficient (Papp) of each compound under the corresponding concentration was calculated according to Eq. (1) and listed as follows:(1) Papp=dQ/dt×1/A×C0 Where Papp was the apparent permeability coefficient (cm/s × 10^−6), dQ/dt (pmol/second) was the rate at which the compound appears in the receiver side, C0 (nM) was the initial concentration of the compound in the donor side, and A (cm^2) represented the surface area of the cell monolayer.

CC[C@@]1(c2ccccc2)NC(=O)N(C)C1=O [S-mephenytoin]
Half-life (t1/2) in human hepatocytes [1]: 21.7 h

C[C@H]1O[C@@H](O[C@H]2[C@@H](O)C[C@H](O[C@H]3[C@@H](O)C[C@H](O[C@H]4CC[C@@]5(C)[C@H](CC[C@@H]6[C@@H]5C[C@@H](O)[C@]5(C)[C@@H](C7=CC(=O)OC7)CC[C@]65O)C4)O[C@@H]3C)O[C@@H]2C)C[C@H](O)[C@@H]1O [digoxin, reference compound]
Papp at 2 h ([2]; read-out: Papp): 1.85 ×10⁻⁶ cm/s

CC(C)NCC(O)COc1cccc2ccccc12 (stereo not shown) [propranolol, reference compound]
Papp at 2 h ([2]; apical pH: basolateral pH 7.4: 7.4, read-out: Caco-2 permeability, calibration input): 33 ×10⁻⁶ cm/s
Papp at 2 h ([2]; read-out: Papp): 33 ×10⁻⁶ cm/s
